{"source": "patent US20190091180A1", "about": "“DOSAGE REGIMEN FOR A S1P RECEPTOR AGONIST” (Novartis AG, priority 2008, published 2019)", "key": {"healthy subjects [1]": {"system": "healthy subjects", "conditions": "administration of 1.25 mg of FTY720; cited from earlier work"}, "healthy subjects [2]": {"system": "healthy subjects", "test": "Double-blind, placebo-controlled dose titration clinical study; heart rate by continuous telemetry", "assay_type": "in vivo, human", "description": "A single-center, double-blind, placebo-controlled, dose titration, once-daily, multiple-oral-dose clinical study in healthy subjects was conducted to evaluate the effect of a dosage regimen of FTY720 according to the present invention. A total of 36 subjects were randomly assigned to one of the three groups. Each subject participated in a screening period of maximal 21 days, a baseline period (Day −1), a 9-day dose-administration period, and clinical study completion assessments on Day 10. Subjects were assigned to one of the three groups (dose titration regimen group, placebo control group, or active control group) and received the once daily dose in a double-blinded manner (Table 1). In the dose titration group, increasing once daily doses of Compound A (FTY720), starting at 0.125 mg o.d. and ending at the maximal therapeutic dose of 1.25 mg o.d. were administered on days 1 to 9 of the study according to the schedule shown in Table 1 below. The placebo control group received placebo through out the duration of the study and the active control group received a once daily dose of 1.25 mg of FTY720 on days 1 to 9. [table] Pharmacodynamic and safety assessments are performed up to 24 hours post last dose. Heart rate is monitored via telemetry on Day −1 through Day 10, 24 hour after the last dosing. Heart rhythm is assessed via 24 hr continuous holter monitoring on Day −1, Day 1, and Day 9. For each dosing for each subject, the drug is administered as closely as practically possible to the time administered on Day −1. Safety assessments includes physical examinations, vital signs and body measurements, 12-lead ECG evaluations, standard clinical laboratory evaluations hematology, blood chemistry, urinalysis, adverse event and serious adverse event monitoring. Systolic and diastolic blood pressure and pulse are measured after the subject has rested quietly in the sitting position for at least 3 minutes. Blood pressure is measured at the same arm on each occasion. Standard 12-lead ECGs are recorded at Screening, baseline, 4 hours post-dose on Day 1 and Day 8, and at Study Completion. The variables recorded are: date and time of ECG, heart rate, PR interval, QT interval (uncorrected), QTcB, QRS duration. The overall interpretation is collected with a Yes/No statement to confirm if any clinically relevant abnormalities are present, which needs to be specified further. Subjects remain on continuous telemetry, starting before breakfast on Day −1 and proceeding throughout the administration period up to Day 10 (24 hour after the last dose). Over this ten day duration of continuous heart rate collection for each subject, one heart rate value is obtained every minute (‘minute unit heart rate’), representing the average heart rate value over that minute. The heart rate database for each subject contains approximately 14,400 data points (10 days×24 hr×60 min). 24-hour continuous Holter-ECG data are captured via a digital Holter monitor (12-lead, on Days −1, 1, 6, and 8), and transferred for interpretation and reporting. Holter monitoring starts approximately at 7:00 and the time of dose administration is regarded as the time “0 hours”. Holter “cuts” are derived from the dataset at 1 hour intervals starting from Day −1 and continuing for 24 hours or the end of the cleaned Holter monitoring dataset. Cardiac conduction intervals: arrhythmia monitoring includes the frequency and duration of sinus pauses (>2 sec and >3 sec) and atrio-ventricular blocks. Frequency and duration of atrial and ventricular ectopy and sinus rhythm are also recorded. The daily chronotropic effect is defined as the percent decrease in HRmin (minimum heart rate) between two consecutive days. It is calculated on days 1 to 9."}, "multiple sclerosis": {"system": "multiple sclerosis", "conditions": "humans; cited from earlier work"}}, "data": [{"smiles": "CCCCCCCCc1ccc(CCC(N)(CO)CO)cc1.Cl", "note": "[FTY720, 2-amino-2-[2-(4-octylphenyl)ethyl]propane-1,3-diol]", "values": [{"measurement": "decrease in heart rate", "setting": "healthy subjects [1]", "value": "approximately 8 beats/min (BPM)"}, {"measurement": "additional decrease in daily average heart rate from Day 1 to Day 2", "setting": "healthy subjects [2]; active control group, 1.25 mg once daily, Day 1 to Day 2", "value": "approximately 3 BPM"}, {"measurement": "decrease in daily average heart rate from Day -1 to Day 1", "setting": "healthy subjects [2]; active control group, 1.25 mg once daily, Day -1 to Day 1", "value": "approximately 8 BPM"}, {"measurement": "gradual decrease in daily average heart rate per day", "setting": "healthy subjects [2]; dose titration group 0.125/0.25/0.5/1.25 mg o.d., over the eight day course of the titration", "value": "1-2 BPM per day"}, {"measurement": "heart rate on initiation of 1.25 mg on Day 8 compared to the preceding days", "setting": "healthy subjects [2]; dose titration group, Day 8, first 1.25 mg dose", "value": "does not result in dip in heart rate"}, {"measurement": "daily minimum heart rates during the course of the study", "setting": "healthy subjects [2]; dose titration regimen compared with 1.25 mg once daily group", "value": "improved daily minimum heart rates"}, {"measurement": "negative chronotropic effect on Day 1 of treatment initiation", "setting": "healthy subjects [2]; dose titration regimen versus 1.25 mg from Day 1", "value": "attenuates the negative chronotropic effect"}, {"measurement": "efficacy in the treatment of multiple sclerosis", "setting": "multiple sclerosis", "value": "has been demonstrated in humans"}]}]}
